Tests used:
[1] = test system: osteoclast lineage cells (osteoclasts and their mononuclear precursors); assay: RANKL-induced osteoclast differentiation (osteoclast number by TRAP staining, cell size by surface area measurement); assay type: cell-based, mouse; details: for osteoclast lineage cells size: phloretin 50 μM added for the last day, mean ± SEM of at least 50 cells
Description: (§1) Bone marrow cells (BMMs) were prepared from the long bones of 7-9 week old BALB/c male mice. Primary BMMs were prepared by flushing mouse femurs and tibias with α-MEM. Cells were cultured in Petri dishes, in complete α-MEM, supplemented with 10% CMG14-12 culture supernatant, which served as a source of M-CSF. After 3 days of culture, plates were washed 3 to 4 times with PBS to remove non-adherent cells. Adherent cells were removed with trypsin-EDTA solution, centrifuged and resuspended in a fresh medium. Murine macrophage-like RAW264.7 cell line was maintained in RPMI 1640 medium supplemented with 10% fetal calf serum (FCS) in the presence of antibiotics (penicillin and streptomycin). Cells were cultured at 37° C. incubator in a humidified atmosphere with 5% CO2, and media were changed every other day. BMMs (7×10^3/well in α-MEM containing 10% FCS and supernatant from CMG14-12 [1:20]) or RAW264.7 cells (3×10^3/well in RPMI-1640 containing 10% FCS) were incubated in 96-well plates (0.2 ml/well). To induce cells to differentiate into osteoclasts, bacterially-produced recombinant RANKL was added at the time of plating. On day 3, medium was changed and on day 5, osteoclast formation was evaluated (see below). A commercial kit (Cat. No. 387-A, Sigma) was used according to the manufacturer instructions. TRAP-positive cells containing three or more nuclei were scored as osteoclasts. The surface area occupied by osteoclasts and their precursors was quantified using a computerized image analysis system (Olympus BX50, DP50, software: ImagePro Plus, Media Cybernetics). In the following assay the significance of the activity of AQP-9 to osteoclast differentiation was determined.

[2] = test system: bone marrow cells (BMMs); assay: Methylene blue uptake; assay type: cell-based, mouse; details: FIG. 5
Description: as §1, with “To induce cells to differentiate into osteoclasts, bacterially-produced recombinant RANKL was added at the time of plating.” left out, “below).” for “below). A commercial kit (Cat. No. 387-A, Sigma) was used according to the manufacturer instructions. TRAP-positive cells containing three or more nuclei were scored as osteoclasts. The surface area occupied by osteoclasts and their precursors was quantified using a computerized image analysis system (Olympus BX50, DP50, software: ImagePro Plus, Media Cybernetics). In the following assay the significance of the activity of AQP-9 to osteoclast differentiation was determined.”
Cells were seeded as for the osteoclast differentiation assay (see above). Monolayers were fixed and methylene blue uptake was measured as described [Goldman, R., and Bar-Shavit, Z. (1979) J. Natl. Cancer Inst. […]

SMILES: O=C(CCc1ccc(O)cc1)c1c(O)cc(O)cc1O [Phloretin, 2′,4′,6′-Trihydroxy-3-(4-hydroxyphenyl)-propiophenone]
- osteoclast lineage cells size ([1]; +RANKL for 5 days): 23722 ± 4351 μm^2
- effect on osteoclast number ([1]; +RANKL for 5 days, phloretin added for the last day, FIG. 4A-4D): dramatic reduction
- effect on osteoclast size ([1]; +RANKL for 5 days, phloretin added for the last day, FIG. 4A-4D, Table 3): dramatic reduction
- effect on number of the mononuclear precursors ([1]; cells not treated with RANKL): did not exhibit a significant effect
- effect on size of the mononuclear precursors ([1]; cells not treated with RANKL): did not exhibit a significant effect
- osteoclast lineage cells size ([1]; −RANKL (mononuclear precursors)): 267 ± 6 μm^2
- effect on methylene blue uptake ([2]; RANKL-treated cells): marked inhibition
- effect on methylene blue uptake ([2]; mononuclear precursors (BMMs grown in the absence of RANKL)): No effect

— patent US8835390B2, “Modulation of osteoclast differentiation” (Osteobuild Ltd., priority 2005, dated 2014)
